Values joined by “and” are separate entries in the source; they are usually repeats but may differ in a detail not shown here. Identical values can stand only once. Toxic doses and inconclusive results are not listed.
Test system: BDF1 mice, B16 melanoma ip, median survival T/C
Experiment: NCI In Vivo Anticancer Drug Screen. Data for tumor model B16 Melanoma (intraperitoneal) in B6D2F1 (BDF1) mice
Conditions: endpoint: median survival time, higher = longer survival
In short: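 Transplantable tumor model; survival or tumor size measured; reported as T/C, treated over vehicle control.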

[1] = dose: 100.0 mg/kg/injection, schedule: Q01DX009 (ip), vehicle: Klucel (hydroxypropylcellulose) (HPC)
[2] = dose: 200.0 mg/kg/injection, schedule: Q01DX009 (ip), vehicle: Klucel (hydroxypropylcellulose) (HPC)
[3] = dose: 400.0 mg/kg/injection, schedule: Q01DX009 (ip), vehicle: Klucel (hydroxypropylcellulose) (HPC)
[4] = dose: 25.0 mg/kg/injection, schedule: Q01DX009 (ip), vehicle: saline
[5] = dose: 50.0 mg/kg/injection, schedule: Q01DX009 (ip), vehicle: saline

COc1cccc2c1C(=O)c1c(O)c3c(c(O)c1C2=O)C[C@@](O)(C(C)=O)C[C@@H]3OC1CC(N)C(O)C(C)O1 (stereo partly drawn)
T/C (dose: 0.06 mg/kg/injection, schedule: Q01DX017 (ip), vehicle: clinical formulation): 184 % of control
T/C (dose: 0.06 mg/kg/injection, schedule: Q05DX010 (ip), vehicle: clinical formulation): 160 % of control
T/C (dose: 0.12 mg/kg/injection, schedule: Q01DX009 (ip), vehicle: clinical formulation): 168 % of control
T/C (dose: 0.12 mg/kg/injection, schedule: Q01DX017 (ip), vehicle: clinical formulation): 178 % of control
T/C (dose: 0.12 mg/kg/injection, schedule: Q05DX010 (ip), vehicle: clinical formulation): 165 % of control
T/C (dose: 0.13 mg/kg/injection, schedule: Q01DX009 (ip), vehicle: water): 189 % of control
T/C (dose: 0.2 mg/kg/injection, schedule: Q01DX009 (ip), vehicle: saline): 170 % of control
T/C (dose: 0.25 mg/kg/injection, schedule: Q01DX009 (ip), vehicle: clinical formulation): 192 % of control
T/C (dose: 0.25 mg/kg/injection, schedule: Q01DX017 (ip), vehicle: clinical formulation): 226 % of control
T/C (dose: 0.25 mg/kg/injection, schedule: Q03HX008 (ip), vehicle: saline): 152 % of control
T/C (dose: 0.25 mg/kg/injection, schedule: Q04DX003 (ip), vehicle: clinical formulation): 162 % of control
T/C (dose: 0.25 mg/kg/injection, schedule: Q04DX005 (ip), vehicle: clinical formulation): 165 % of control
T/C (dose: 0.25 mg/kg/injection, schedule: Q05DX010 (ip), vehicle: clinical formulation): 237 % of control
T/C (dose: 0.39 mg/kg/injection, schedule: Q01DX009 (ip), vehicle: saline): 212 % of control
T/C (dose: 0.5 mg/kg/injection, schedule: Q01DX009 (ip), vehicle: clinical formulation): 292 % of control
T/C (dose: 0.5 mg/kg/injection, schedule: Q01DX017 (ip), vehicle: clinical formulation): 315 % of control
T/C (dose: 0.5 mg/kg/injection, schedule: Q04DX005 (ip), vehicle: clinical formulation): 215 % of control
T/C (dose: 0.5 mg/kg/injection, schedule: Q05DX010 (ip), vehicle: clinical formulation): 235 % of control
T/C (dose: 0.5 mg/kg/injection, schedule: Q11DX018 (sc), vehicle: water): 100 % of control
T/C (dose: 0.78 mg/kg/injection, schedule: Q01DX009 (ip), vehicle: saline): 238 % of control
T/C (dose: 1.0 mg/kg/injection, schedule: Q01DX001 (ip), vehicle: clinical formulation): 223 % of control
T/C (dose: 1.0 mg/kg/injection, schedule: Q01DX009 (ip), vehicle: clinical formulation): 204 % of control
T/C (dose: 1.0 mg/kg/injection, schedule: Q01DX017 (ip), vehicle: clinical formulation): 213 % of control
T/C (dose: 1.0 mg/kg/injection, schedule: Q04DX003 (ip), vehicle: clinical formulation): 217 % of control
T/C (dose: 1.0 mg/kg/injection, schedule: Q04DX005 (ip), vehicle: clinical formulation): 194 % of control
T/C (dose: 1.0 mg/kg/injection, schedule: Q05DX010 (ip), vehicle: clinical formulation): 200 % of control
T/C (dose: 1.0 mg/kg/injection, schedule: Q11DX018 (sc), vehicle: water): 111 % of control
T/C (dose: 1.5 mg/kg/injection, schedule: Q01DX001 (ip), vehicle: water): 287 % of control
T/C (dose: 1.56 mg/kg/injection, schedule: Q01DX009 (ip), vehicle: saline): 150 % of control
T/C (dose: 2.0 mg/kg/injection, schedule: Q01DX001 (ip), vehicle: clinical formulation): 204 % of control
T/C (dose: 2.0 mg/kg/injection, schedule: Q01DX009 (ip), vehicle: clinical formulation): 187 % of control
T/C (dose: 2.0 mg/kg/injection, schedule: Q04DX003 (ip), vehicle: clinical formulation): 215 % of control
T/C (dose: 2.0 mg/kg/injection, schedule: Q04DX005 (ip), vehicle: clinical formulation): 160 % of control
T/C (dose: 2.0 mg/kg/injection, schedule: Q05DX010 (ip), vehicle: clinical formulation): 110 % of control
T/C (dose: 3.0 mg/kg/injection, schedule: Q01DX001 (ip), vehicle: water): 287 % of control
T/C (dose: 4.0 mg/kg/injection, schedule: Q01DX001 (ip), vehicle: clinical formulation): 285 % of control
T/C (dose: 6.0 mg/kg/injection, schedule: Q01DX001 (ip), vehicle: water): 94 % of control and 103 % of control
T/C (dose: 7.5 mg/kg/injection, schedule: Q01DX001 (ip), vehicle: water): 107 % of control and 122 % of control
T/C (dose: 10.0 mg/kg/injection, schedule: Q01DX001 (ip), vehicle: water): 110 % of control

COc1ccc(-c2cc(=O)c3c(ccc4ccccc43)o2)cc1
T/C [1]: 94 % of control
T/C [2]: 100 % of control
T/C [3]: 102 % of control

CN(C)N=Nc1ccccc1C(=O)NC#N
T/C (dose: 18.75 mg/kg/injection, schedule: Q01DX009 (ip), vehicle: Klucel (hydroxypropylcellulose) (HPC)): 95 % of control
T/C (dose: 37.5 mg/kg/injection, schedule: Q01DX009 (ip), vehicle: Klucel (hydroxypropylcellulose) (HPC)): 105 % of control

S=c1nc[nH]c2nc[nH]c12
T/C (dose: 2.5 mg/kg/injection, schedule: Q01DX009 (ip), vehicle: other): 120 % of control
T/C (dose: 2.5 mg/kg/injection, schedule: Q01DX009 (ip), vehicle: saline): 107 % of control
T/C (dose: 5.0 mg/kg/injection, schedule: Q01DX009 (ip), vehicle: other): 112 % of control
T/C (dose: 5.0 mg/kg/injection, schedule: Q01DX009 (ip), vehicle: saline): 110 % of control
T/C (dose: 7.5 mg/kg/injection, schedule: Q01DX009 (ip), vehicle: Klucel (hydroxypropylcellulose) (HPC)): 93 % of control
T/C (dose: 9.38 mg/kg/injection, schedule: Q01DX009 (ip), vehicle: alkali diluted with water): 94 % of control
T/C (dose: 10.0 mg/kg/injection, schedule: Q01DX009 (ip), vehicle: saline): 110 % of control
T/C (dose: 11.3 mg/kg/injection, schedule: Q01DX009 (ip), vehicle: other): 90 % of control
T/C (dose: 12.5 mg/kg/injection, schedule: Q01DX009 (ip), vehicle: Klucel (hydroxypropylcellulose) (HPC)): 110 % of control
T/C (dose: 18.8 mg/kg/injection, schedule: Q01DX009 (ip), vehicle: alkali diluted with water): 100 % of control
T/C (dose: 20.0 mg/kg/injection, schedule: Q01DX009 (ip), vehicle: saline): 160 % of control
T/C (dose: 22.5 mg/kg/injection, schedule: Q01DX009 (ip), vehicle: other): 95 % of control
T/C (dose: 25.0 mg/kg/injection, schedule: Q01DX009 (ip), vehicle: acid diluted with saline): 87 % of control
T/C (dose: 30.0 mg/kg/injection, schedule: Q01DX009 (ip), vehicle: saline): 105 % of control
T/C (dose: 37.5 mg/kg/injection, schedule: Q01DX009 (ip), vehicle: alkali diluted with water): 88 % of control
T/C (dose: 40.0 mg/kg/injection, schedule: Q01DX009 (ip), vehicle: saline): 110 % of control
T/C (dose: 75.0 mg/kg/injection, schedule: Q01DX009 (ip), vehicle: alkali diluted with water): 84 % of control
T/C (dose: 78.0 mg/kg/injection, schedule: Q04DX003 (ip), vehicle: alkali diluted with water): 96 % of control
T/C (dose: 120.0 mg/kg/injection, schedule: Q04DX003 (ip), vehicle: alkali diluted with water): 98 % of control
T/C (dose: 150.0 mg/kg/injection, schedule: Q01DX009 (ip), vehicle: alkali diluted with water): 46 % of control
T/C (dose: 200.0 mg/kg/injection, schedule: Q04DX003 (ip), vehicle: alkali diluted with water): 84 % of control
T/C (dose: 333.0 mg/kg/injection, schedule: Q04DX003 (ip), vehicle: alkali diluted with water): 81 % of control

CCC(C)C(C(=O)OC1CCN(C)CC1)c1ccccc1 (stereo not drawn)
T/C [4]: 101 % of control
T/C [5]: 90 % of control

CC(C)c1c[nH]c(=O)[nH]c1=O
T/C [1]: 100 % of control
T/C [2]: 92 % of control
T/C [3]: 95 % of control

N=C(N)CCNC(=O)C1CCC(N)=N1 (stereo not drawn)
T/C (dose: 0.75 mg/kg/injection, schedule: Q01DX009 (ip), vehicle: saline): 96 % of control
T/C (dose: 1.5 mg/kg/injection, schedule: Q01DX009 (ip), vehicle: saline): 88 % of control
T/C (dose: 3.0 mg/kg/injection, schedule: Q01DX009 (ip), vehicle: saline): 93 % of control
T/C (dose: 6.0 mg/kg/injection, schedule: Q01DX009 (ip), vehicle: saline): 99 % of control

CN(C)CCC1CCCCN1 (stereo not drawn)
T/C [4]: 112 % of control
T/C [5]: 100 % of control
T/C (dose: 100.0 mg/kg/injection, schedule: Q01DX009 (ip), vehicle: saline): 100 % of control

[O-]c1c[n+](C23CCC(c4ccccc42)c2ccccc23)no1
T/C (dose: 75.0 mg/kg/injection, schedule: Q01DX009 (ip), vehicle: Klucel (hydroxypropylcellulose) (HPC)): 102 % of control
T/C (dose: 150.0 mg/kg/injection, schedule: Q01DX009 (ip), vehicle: Klucel (hydroxypropylcellulose) (HPC)): 100 % of control
T/C (dose: 300.0 mg/kg/injection, schedule: Q01DX009 (ip), vehicle: Klucel (hydroxypropylcellulose) (HPC)): 108 % of control

C/C=C(/C#N)c1ccccc1
T/C (dose: 50.0 mg/kg/injection, schedule: Q04DX003 (ip), vehicle: saline with Tween-80): 100 % of control
T/C (dose: 100.0 mg/kg/injection, schedule: Q04DX003 (ip), vehicle: saline with Tween-80): 97 % of control
